Test results as given in patent US20250276955A1, “CORONAVIRUS MAIN PROTEASE INHIBITORS AND METHODS USING SAME” (Baylor College of Medicine, priority 2021, published 2025).
Values after ≈ are worked out from the molar mass of the structure shown. “Also recorded” adds a separate entry of the source. Like-named read-outs stand apart in the source and are kept apart here.

What was measured:
SARS-COV-2 M^pro-His6 = SARS-COV-2 M^pro-His6 (Severe acute respiratory syndrome coronavirus 2, UniProt P0DTD1); assay: biochemical; format: biochemical
[1] = biological target: SARS-COV-2 M^pro (authentic N- and C-termini) (Severe acute respiratory syndrome coronavirus 2, UniProt P0DTD1); assay: biochemical; format: biochemical
[2] = biological target: SARS-CoV-2 main protease (M^pro) (Severe acute respiratory syndrome coronavirus 2, UniProt P0DTD1); assay: Protein thermal shift stability assay (SYPRO Orange); format: binding
HOVPro-Gi.1 = biological target: T1, HOVPro-Gi.1 (Norovirus, UniProt Q83883); assay: Thermal shift, HOVPro-Gi.1; format: binding
T1 construct: HOVPro-Gi.1
T1 sequence (Q83883 1101-1281): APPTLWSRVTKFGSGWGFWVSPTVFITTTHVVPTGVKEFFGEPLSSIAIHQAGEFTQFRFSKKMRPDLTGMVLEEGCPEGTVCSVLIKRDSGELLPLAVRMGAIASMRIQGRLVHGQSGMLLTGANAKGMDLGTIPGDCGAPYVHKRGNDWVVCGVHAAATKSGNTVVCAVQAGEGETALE

HOVPro-Gii.4 = assay: Thermal shift, HOVPro-Gii.4; format: binding
human thrombin = biological target: T2, human thrombin (Homo sapiens, UniProt P00734); assay: Thrombin fluorescence assay; format: biochemical
T2 construct: purchased Sigma-Aldrich MAK243

Human Cathepsin B = biological target: T3, Human Cathepsin B (Homo sapiens, UniProt P07858); assay: Cathepsin B assay; format: biochemical
T3 construct: purchased BPS Bioscience 79590
Experimental: (§1) A kit from BPS Bioscience (#79590) was used with adjustments to the manufacturer's protocol as follows: The activated enzyme was diluted 250-fold just before use, and the reaction was run at RT in black 96 half-area plates in a total reaction volume of 50 uL containing 0.01% Tween-20. Instead of measuring endpoints at 60 min the increase in fluorescence (Ex 360 nm, Em 460 nm) per second (RFU/s) was obtained from linear progress curves over 10 min. Fractional activities were calculated from reactions with no inhibitors. E-64 was used as a positive control.

[3] = Metabolic stability in mouse liver microsomes; format: in vitro ADME; conditions: mouse, liver microsomes; for half-life at 2 μM: Table 4, read-out: MLM t1/2
Experimental: (§2) The samples were collected at specific time-points 0, 30, and 60 min in duplicate. The reactions were terminated by adding an equivalent volume of ice-cold methanol and vortexed. […] Three μL of the supernatant was analyzed by UHPLC-Q Exactive Orbitrap MS (Thermo Fisher Scientific, USA) equipped with 50 mm×4.6 mm column (XDB C-18, Agilent Technologies, USA). The column temperature was maintained at 40° C. The flow rate was at 0.3 mL/min with a 30% mobile phase (acetonitrile containing 0.1% formic acid). Q Exactive MS was operated in positive mode with electrospray ionization. Ultra-pure nitrogen was applied as the sheath (45 arbitrary unit), auxiliary (10 arbitrary unit), sweep (1.0 arbitrary unit) and the collision gas. […] MS data were acquired from 80 to 1,200 Da in profile mode.

[4] = Metabolic stability in human liver microsomes; format: in vitro ADME; conditions: human, liver microsomes; for half-life at 2 μM: Table 4, read-out: HLM t1/2
Experimental: as §2

[5] = 293T relative cell viability; conditions: human, 293T cells
[6] = Apparent solubility in PBS buffer; conditions: for solubility: PBS buffer with 2% DMSO, aqueous buffer, kinetic from dmso stock
renin = biological target: T4, renin (Homo sapiens, UniProt P00797); assay: Renin assay; format: biochemical
T4 construct: purchased BPS Bioscience 80211
T4 sequence (P00797 67-406): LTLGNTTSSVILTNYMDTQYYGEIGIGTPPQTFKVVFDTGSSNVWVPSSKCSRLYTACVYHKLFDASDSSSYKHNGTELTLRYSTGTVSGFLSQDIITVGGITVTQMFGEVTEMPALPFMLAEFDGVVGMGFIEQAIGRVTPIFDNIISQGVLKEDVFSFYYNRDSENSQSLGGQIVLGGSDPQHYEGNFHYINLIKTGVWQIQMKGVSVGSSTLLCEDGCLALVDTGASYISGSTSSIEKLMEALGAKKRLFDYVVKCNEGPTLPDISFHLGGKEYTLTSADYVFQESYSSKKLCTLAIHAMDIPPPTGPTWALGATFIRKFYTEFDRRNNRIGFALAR
Experimental: as §1, with “(#80211)” for “(#79590)”, “The” for “The activated enzyme was diluted 250-fold just before use, and the”, “30” for “60”, “490” for “360”, “520” for “460”, “Aliskiren” for “E-64”

[7] = biological target: T5, matrix metallopeptidase 1 (MMP-1) (Homo sapiens, UniProt P03956); assay: MMP-1 assay; format: biochemical
T5 construct: purchased Biovision K794-100
T5 sequence (P03956 100-469): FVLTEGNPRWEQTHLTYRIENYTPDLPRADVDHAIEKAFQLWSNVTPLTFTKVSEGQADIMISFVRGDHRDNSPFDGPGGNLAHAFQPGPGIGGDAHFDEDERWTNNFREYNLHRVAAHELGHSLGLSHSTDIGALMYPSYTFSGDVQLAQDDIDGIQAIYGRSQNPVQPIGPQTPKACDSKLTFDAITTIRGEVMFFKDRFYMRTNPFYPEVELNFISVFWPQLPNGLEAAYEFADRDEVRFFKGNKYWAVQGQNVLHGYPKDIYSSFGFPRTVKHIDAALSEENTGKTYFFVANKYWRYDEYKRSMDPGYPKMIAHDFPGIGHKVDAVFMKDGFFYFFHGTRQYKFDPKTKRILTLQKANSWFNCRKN
Experimental: A kit from Biovision (#K794-100) was used with adjustments to the manufacturer's protocol as follows: The enzyme was reconstituted according to protocol and then diluted 5-fold with assay buffer just before use. The unknown fluorogenic substrate was further diluted 10-fold with the provided assay buffer. The reaction was run at 37 C in black 96 half-area plates in a total reaction volume of 50 μL containing 0.01% Tween-20. The increase in fluorescence (Ex 490 nm, Em 520 nm) per second (RFU/s) was obtained from linear progress curves over 10 min. Fractional activities were calculated from reactions with no inhibitors. GM 6001 was used as a positive control.

Pharmacokinetics in mice = format: in vivo; conditions: 50 mg/kg intraperitoneal, plasma
Experimental: The whole blood samples were span at 2,000 rcf for 5 min for the separation of plasma. […] The concentration of these compounds in plasma were quantified using a calibration curve.

HepG2 cells = assay: HepG2 cytotoxicity assay (XTT); conditions: Homo sapiens, HepG2, 24 h, read-out: HepG2 cell viability IC50

SMILES | ΔTm of HOVPro-Gi.1 at 50 μM compound conc. (HOVPro-Gi.1) | ΔTm of HOVPro-Gii.4 at 50 μM compound conc. (HOVPro-Gii.4) | thrombin inhibition (in words) (human thrombin) | Human Cathepsin B, Fractional Remaining Activity (Human Cathepsin B) | microsomal CLint at 2 μM [3] | half-life at 2 μM [3] | microsomal CLint at 2 μM [4] | half-life at 2 μM [4] | cytotoxicity at 3 day, 10 μM [5] | solubility [6] | Thrombin inhibition (human thrombin; fluorescence assay) | thrombin inhibition (in words) (human thrombin; fluorescence assay) | cathepsin B inhibition (in words) (Human Cathepsin B) | renin inhibition (in words) (renin) | MMP-1 inhibition (in words) [7] | AUC0-t (Pharmacokinetics in mice) | CL/F (Pharmacokinetics in mice) | Tmax (Pharmacokinetics in mice) | ΔTm of Mpro at 50 μM compound conc. ([2]; 50 μM compound, […]) | further results
COc1cc(-c2cccc3[nH]ncc23)cc(C=O)c1OCC(=O)N1CCC(Oc2cccc(C(=O)N(C)C)c2)C1 (centres unmarked) [CDD-1714, 3-((1-(2-(2-formyl-4-(1H-indazol-4-yl)-6-methoxyphenoxy)acetyl)pyrrolidin-3-yl)oxy)-N,N-dimethylbenzamide] | −0.11 °C | −0.41 °C | No inhibition | 0.92 | 130 µL/min/mg | 10.7 min | 132 µL/min/mg | 10.5 min | 21% | 54.4 µM (≈ 29.5 µg/mL) | – | – | – | – | – | – | – | – | – | Ki (SARS-COV-2 M^pro-His6; 25 nM enzyme, 15 μM fluorescent peptide, Morrison equation, Inactive = less than 50% inhibition at 25 μM compound, read-out: M^pro-His Ki): 20.2 ± 3 nM; Ki ([1]; Morrison equation, read-out: apparent Ki against M^pro): 24.4 nM; stabilization of M^pro in thermal shift assay (in words) [2]: stabilized; also recorded: concentration-dependent stabilization; ΔTm of Mpro at 50 μM compound conc. [2]: 2.93 °C; Thrombin inhibition (human thrombin): None
CCCC(NC(=O)c1cccc2nc(-c3cncc4ccccc34)n([C@H]3C[C@H](C(=O)NC)C3)c12)c1ccc(C(F)(F)F)cc1 (some centres unmarked) [CDD-1733] | – | – | – | 0.91 | – | – | – | – | – | – | None | No inhibition; also recorded: negative | negative | negative | negative | 7.80 ± 3.22 µmol·h/L | 7.73 ± 2.75 mg/(hr · μmol/L)/kg | 60 min | – | ΔTm of Mpro at 50 μM compound conc. ([2]; 50 μM compound, […], 50 µM): 7.75 °C; ΔTm of HOVPro-Gi.1 at 50 μM compound conc. (HOVPro-Gi.1; 50 µM): −0.74 °C; ΔTm of HOVPro-Gii.4 at 50 μM compound conc. (HOVPro-Gii.4; 50 µM): −1.2 °C; Measured apparent solubility in PBS buffer (2% DMSO) ([6]; PBS buffer, 2% DMSO): 30.3 µM
CNCc1cc(-c2cccc3[nH]ncc23)cc(OC)c1OCC(=O)N(C)C [CDD-1777] | – | – | – | – | – | – | – | – | 4% | 195 µM (≈ 71.7 µg/mL) | – | – | – | – | – | – | – | – | 1.00 °C | M^pro-His Ki (SARS-COV-2 M^pro-His6): Inactive; Ki,app [1]: Inactive; M^pro Ki [1]: Inactive
CCC[C@H](NC(=O)c1cccc2nc(-c3cncc4ccccc34)n([C@H]3C[C@H](C(=O)NC)C3)c12)c1ccc(OC(F)F)cc1 [CDD-1780] | −0.18 °C | −1.23 °C | – | 0.95 | 39.5 µL/min/mg | 35.1 min | 76.1 µL/min/mg | 18 min | 6% | 41.8 µM (≈ 25 µg/mL) | None | – | – | – | – | – | – | – | 9.19 °C | Ki (SARS-COV-2 M^pro-His6; Table 3, column a (footnote not given), read-out: Kiapp (nM)^a): 13.7 ± 1.5 nM; Ki ([1]; Table 3, column b (footnote not given), read-out: Kiapp (nM)^b): 15.7 ± 1.6 nM
CNC(=O)[C@H]1C[C@H](n2c(-c3cncc4ccccc34)nc3cccc(C(=O)NC(C)c4ccc5ccccc5c4)c32)C1 (some centres unmarked) [CDD-1819] | – | – | – | – | – | – | – | – | – | – | – | negative | negative | negative | negative | – | 7.26 ± 1.81 mg/(hr · μmol/L)/kg | – | – | MRT last (Pharmacokinetics in mice; mouse, ip, read-out: MRT0-t): 1.31 ± 0.12 h; MRT inf (Pharmacokinetics in mice; mouse, ip, read-out: MRT0-∞): 1.42 ± 0.16 h; Tmax (Pharmacokinetics in mice; mouse, ip, read-out: Tmax): 19.8 ± 8.4 min; IC50 (HepG2 cells): > 100 µM
CNC(=O)CCCn1c(-c2cncc3ccccc23)nc2cccc(C(=O)N[C@@H](C)c3ccc4ccccc4c3)c21 [CDD-1845] | – | – | negative | – | – | – | – | – | – | – | – | – | negative | negative | negative | 14.87 ± 7.79 µmol·h/L | 4.02 ± 1.98 mg/(hr · μmol/L)/kg | 19.8 ± 8.4 min | – | AUC0-∞ (Pharmacokinetics in mice): 14.93 ± 7.85 µmol·h/L; Cmax (Pharmacokinetics in mice): 8.93 ± 4.55 µM; MRT0-t (Pharmacokinetics in mice): 1.22 ± 0.03 h; MRT0-∞ (Pharmacokinetics in mice): 1.25 ± 0.02 h; T1/2 (Pharmacokinetics in mice): 1.14 ± 0.32 h
